Laboratory results published in patent publication US20060293307A1, “Oxazolidinone derivatives as antimicrobials” (priority 2002, published 2006).
In brackets after ≈: the same amount, converted by molar mass. Read-outs that look alike come from different tables or passages of the source.

What was measured:
M. tuberculosis ATCC = assay: MIC against M. tuberculosis strains, agar dilution; type: cell-based, Mycobacterium tuberculosis; details: S. No. 03 Mt-, Middle Brook 7H10 + OADC, 37° C., 14-21 days
M. tuberculosis SGPGI = assay: MIC against M. tuberculosis strains, agar dilution; type: cell-based, Mycobacterium tuberculosis; details: S. No. 06 Mt-, Middle Brook 7H10 + OADC, 37° C., 14-21 days
M. tuberculosis M-66 = assay: MIC against M. tuberculosis strains, agar dilution; type: cell-based, Mycobacterium tuberculosis; details: Middle Brook 7H10 + OADC, 37° C., 14-21 days
M. tuberculosis M-168 = assay: MIC against M. tuberculosis strains, agar dilution; type: cell-based, Mycobacterium tuberculosis; details: Middle Brook 7H10 + OADC, 37° C., 14-21 days
M. tuberculosis M-164 = assay: MIC against M. tuberculosis strains, agar dilution; type: cell-based, Mycobacterium tuberculosis; details: Middle Brook 7H10 + OADC, 37° C., 14-21 days
M. tuberculosis B-125 = assay: MIC against M. tuberculosis strains, agar dilution; type: cell-based, Mycobacterium tuberculosis; details: S. No. 11 Mt-, Middle Brook 7H10 + OADC, 37° C., 14-21 days
M. tuberculosis V-3093 = assay: MIC against M. tuberculosis strains, agar dilution; type: cell-based, Mycobacterium tuberculosis; details: Middle Brook 7H10 + OADC, 37° C., 14-21 days
M. tuberculosis M-149 = assay: MIC against M. tuberculosis strains, agar dilution; type: cell-based, Mycobacterium tuberculosis; details: Middle Brook 7H10 + OADC, 37° C., 14-21 days
M. tuberculosis PC = assay: MIC against M. tuberculosis strains, agar dilution; type: cell-based, Mycobacterium tuberculosis; details: S. No. 20 Mt-, Middle Brook 7H10 + OADC, 37° C., 14-21 days
M. tuberculosis PC 4793 = assay: MIC against M. tuberculosis strains, agar dilution; type: cell-based, Mycobacterium tuberculosis; details: Middle Brook 7H10 + OADC, 37° C., 14-21 days
M. tuberculosis H37Ra = assay: MIC against M. tuberculosis strains, agar dilution; type: cell-based, Mycobacterium tuberculosis; details: S. No. 24 Mt-, Middle Brook 7H10 + OADC, 37° C., 14-21 days
M avium ATCC 25291 = assay: MIC against MAC strains, agar dilution; type: cell-based, Mycobacterium avium; details: S. No. 02 Ma-2, M avium ATCC 25291; Middle Brook 7H10 + OADC, 37° C., 14-21 days
M. avium ATCC 1723 = assay: MIC against MAC strains, agar dilution; type: cell-based, Mycobacterium avium; details: S. No. 03 Ma-3, M. avium ATCC 1723; Middle Brook 7H10 + OADC, 37° C., 14-21 days
M avium ATCC 700897 = assay: MIC against MAC strains, agar dilution; type: cell-based, Mycobacterium avium; details: S. No. 05 Ma-6, M avium ATCC 700897; Middle Brook 7H10 + OADC, 37° C., 14-21 days
[1] = tested on: M. avium intracellulare 356/97; assay: MIC against MAC strains, agar dilution; type: cell-based; details: S. No. 10 Mai-1, M. avium intracellulare 356/97; Middle Brook 7H10 + OADC, 37° C., 14-21 days
[2] = tested on: M. avium intracellulare 4; assay: MIC against MAC strains, agar dilution; type: cell-based; details: S. No. 11 Mai-2, M. avium intracellulare 4, Middle Brook 7H10 + OADC, 37° C., 14-21 days
[3] = tested on: M. avium intracellulare 18/98; assay: MIC against MAC strains, agar dilution; type: cell-based; details: S. No. 16 Mai-9, M. avium intracellulare 18/98; Middle Brook 7H10 + OADC, 37° C., 14-21 days
M. bovis ATCC 19210 = type: cell-based; details: S. No. 18 NTM, Middle Brook 7H10 + OADC, 37° C., 14-21 days
H. influenzae ATCC 49247 = assay: MIC against Haemophilus strains; type: cell-based; details: Haemophilus influenzae, ATCC49247; s. No. 2, H. influenzae ATCC 49247; read-out: MIC
H. influenzae R = assay: MIC against Haemophilus strains; type: cell-based; details: Haemophilus influenzae; s. No. 4, H. influenzae R; read-out: MIC
H. influenzae 1745 = assay: MIC against Haemophilus strains; type: cell-based; details: Haemophilus influenzae; s. No. 9, H. influenzae 1745; read-out: MIC
H. influenzae 474 = assay: MIC against Haemophilus strains; type: cell-based; details: Haemophilus influenzae; s. No. 11, H. influenzae 474; read-out: MIC
[4] = Mycobacterium tuberculosis, read-out: MIC

Compound | MIC (M. tuberculosis ATCC) | MIC (M. tuberculosis SGPGI) [µg/mL] | MIC (M. tuberculosis M-66; S. No. 08 Mt-) [µg/mL] | MIC (M. tuberculosis M-168; S. No. 09 Mt-) [µg/mL] | MIC (M. tuberculosis M-164; S. No. 10 Mt-) [µg/mL] | MIC (M. tuberculosis B-125) | MIC (M. tuberculosis V-3093; S. No. 14 Mt-) | MIC (M. tuberculosis M-149; S. No. 15 Mt-) [µg/mL] | MIC (M. tuberculosis PC) [µg/mL] | MIC (M. tuberculosis PC 4793; S. No. 23 Mt-) [µg/mL] | MIC (M. tuberculosis H37Ra) | MIC (M avium ATCC 25291) [µg/mL] | MIC (M. avium ATCC 1723) [µg/mL] | MIC (M avium ATCC 700897) [µg/mL] | MIC [1] [µg/mL] | MIC [2] [µg/mL] | MIC [3] [µg/mL] | MIC (M. bovis ATCC 19210) [µg/mL] | also measured
CC[C@H]1OC(=O)[C@H](C)[C@@H](O[C@H]2C[C@@](C)(OC)[C@@H](O)[C@H](C)O2)[C@H](C)[C@@H](O[C@@H]2O[C@H](C)C[C@H](N(C)C)[C@H]2O)[C@](C)(OC)C[C@@H](C)C(=O)[C@H](C)[C@@H](O)[C@]1(C)O [CLA] | 32 µg/mL | 32 | 16 | 8.0 | 16 | 16 µg/mL | 16 µg/mL | 16 | 4.0 | 8.0 | <0.25 µg/mL | 8.0 | 1.0 | 2.0 | 2.0 | <0.25 | 32 | 32 | –
CCc1cc(C(N)=S)ccn1 [ETH] | 2.0 µg/mL | >32 | >32 | >32 | >32 | 2.0 µg/mL | 2.0 µg/mL | >32 | 16 | >32 | 2.0 µg/mL | 32 | 16 | >32 | 8.0 | 4.0 | 32 | 2.0 | –
NNC(=O)c1ccncc1 [INH] | >32 µg/mL | 16 | >32 | 4.0 | >32 | 0.06 µg/mL | 0.06 µg/mL | 8.0 | 16 | >32 | 0.25 µg/mL | >32 | 32 | 4.0 | 4.0 | 2.0 | 8.0 | 0.25 | –
CC(=O)NC[C@H]1CN(c2ccc(N3CCOCC3)c(F)c2)C(=O)O1 [Linezolid, reference compound] | – | – | – | – | – | – | – | – | – | – | – | – | – | – | – | – | – | – | MIC (H. influenzae ATCC 49247): 8 µg/mL (≈ 23.7 µM); MIC (H. influenzae R): 16 µg/mL (≈ 47.4 µM); MIC (H. influenzae 1745): 16 µg/mL (≈ 47.4 µM); MIC (H. influenzae 474): 16 µg/mL (≈ 47.4 µM); MIC (M. tuberculosis ATCC; [4]): 1 µg/mL; MIC (M. tuberculosis SGPGI; [4]): > 32 µg/mL; MIC (M. tuberculosis M-66; Mycobacterium tuberculosis, M66, S. No. 08 Mt-, read-out: MIC): > 32 µg/mL; MIC (M. tuberculosis M-168; Mycobacterium tuberculosis, M168, S. No. 09 Mt-, read-out: MIC): 4 µg/mL; MIC (M. tuberculosis M-164; Mycobacterium tuberculosis, M164, S. No. 10 Mt-, read-out: MIC): 32 µg/mL; MIC (M. tuberculosis V-3093; Mycobacterium tuberculosis, V3093, S. No. 14 Mt-, read-out: MIC): 1 µg/mL; MIC (M. tuberculosis M-149; Mycobacterium tuberculosis, M149, S. No. 15 Mt-, read-out: MIC): 32 µg/mL; MIC (M. tuberculosis PC; [4]): 32 µg/mL; MIC (M. tuberculosis PC 4793; Mycobacterium tuberculosis, PC4793, S. No. 23 Mt-, read-out: MIC): 8 µg/mL; MIC (M. tuberculosis H37Ra; [4]): 0.5 µg/mL; MIC ([2]; Mycobacterium avium, read-out: MIC): 8 µg/mL
C[C@@H]1CN(c2c(F)c(N)c3c(=O)c(C(=O)O)cn(C4CC4)c3c2F)C[C@H](C)N1 [SPAR] | ≦0.125 μg/ml | 4.0 | 32 | 2.0 | 1.0 | ≦0.125 μg/ml | ≦0.125 μg/ml | 2.0 | 8.0 | 4.0 | ≦0.12 μg/ml | 32 | 4.0 | 2.0 | 2.0 | 1.0 | 2.0 | <0.12 | –
